# From patent US7393865B2, “Sleep inducing compounds and methods relating thereto” (Neurocrine Biosciences, Inc., priority 2004, dated 2008)
# Biological target: T1, human H1 receptor (Homo sapiens, UniProt P35367)
# T1 construct: expressed in transfected cells; host or cells: CHO cells (crude membranes)
# Test: Human histamine H1 receptor binding assay
# Settings: competition with 1.5 nM [pyridinyl-5-3H] Pyrilamine, crude membranes of CHO cells transfected with human H1 receptor; Ki from IC50 by Cheng-Prusoff
# Experimental: Compounds of the present invention may be evaluated for binding to the histamine H1 receptor by a standard binding assay. […] Pyrilamine (˜30 Ci/mmol, Amersham TRK608) in the presence of varying concentrations of competing ligand. Non-specific binding is determined in the presence of excess (1 μM) doxepin. Bound and free ligand are separated by rapid vacuum filtration using a Packard 96-well cell harvester onto UniFilter GF/C filter plates (PerkinElmer) that has been pretreated with 1% polyethyleneimine. The filter plates are then washed with 600 μl phosphate buffered saline containing 0.01% (v/v) Triton-X100. Bound radioligand is determined by scintillation counting using a TopCount-NXT (Packard). Binding data is analyzed by nonlinear, least-squares curve fitting algorithms using GraphPad Prism (GraphPad Software, Inc. San Diego, Calif.) or ActivityBase (IDBS, Guildford, Surrey, UK).
# T1 sequence (P35367 whole entry): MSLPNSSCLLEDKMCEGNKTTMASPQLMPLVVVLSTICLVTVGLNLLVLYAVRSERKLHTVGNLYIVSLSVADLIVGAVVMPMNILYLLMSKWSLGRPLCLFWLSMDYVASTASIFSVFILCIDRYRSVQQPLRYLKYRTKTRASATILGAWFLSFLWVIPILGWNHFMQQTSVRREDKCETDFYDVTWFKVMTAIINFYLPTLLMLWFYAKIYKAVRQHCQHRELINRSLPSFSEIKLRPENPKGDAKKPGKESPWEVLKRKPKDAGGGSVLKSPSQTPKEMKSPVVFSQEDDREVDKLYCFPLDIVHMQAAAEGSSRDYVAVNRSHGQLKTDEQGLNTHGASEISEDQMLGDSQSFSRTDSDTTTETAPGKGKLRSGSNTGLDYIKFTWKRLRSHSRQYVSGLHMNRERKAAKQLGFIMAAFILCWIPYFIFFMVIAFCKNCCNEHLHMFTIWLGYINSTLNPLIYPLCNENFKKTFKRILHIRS
row,Ki,Structure (SMILES)
1,≤ 1 µM,"CC(c1ccccn1)c1c(CCN2CCCC2)sc2ccccc12 (centres unmarked) [Compound 20-1, 2-{1-[2-(2-Pyrrolidin-1-yl-ethyl)-benzo[b]thiophen-3-yl]-ethyl}-pyridine]"
2,≤ 1 µM,"C[C@H](c1ccccn1)c1c(CCN2CCCC2)sc2ccccc12 [Compound 20-2, 2-{(S)-1-[2-(2-Pyrrolidin-1-yl-ethyl)-benzo[b]thiophen-3-yl]-ethyl}-pyridine]"
3,≤ 1 µM,"C[C@@H](c1ccccn1)c1c(CCN2CCCC2)sc2ccccc12 [Compound 20-3, 2-{(R)-1-[2-(2-Pyrrolidin-1-yl-ethyl)-benzo[b]thiophen-3-yl]-ethyl}-pyridine]"
4,≤ 1 µM,"CC(c1ccccn1)c1c(CCN2CCC(O)C2)sc2ccccc12 (centres unmarked) [Compound 20-6, 1-{2-[3-(1-Pyridin-2-yl-ethyl)-benzo[b]thiophen-2-yl]-ethyl}-pyrrolidin-3-ol]"
5,≤ 1 µM,"CC(c1ccccn1)c1c(CCN2CCC2)sc2ccccc12 (centres unmarked) [Compound 20-7, 2-{1-[2-(2-Azetidin-1-yl-ethyl)-benzo[b]thiophen-3-yl]-ethyl}-pyridine]"
6,≤ 1 µM,"C[C@@H](c1ccccn1)c1c(CCN2CCC2)sc2ccccc12 [Compound 20-8, 2-{(R)-1-[2-(2-Azetidin-1-yl-ethyl)-benzo[b]thiophen-3-yl]-ethyl}-pyridine]"
7,≤ 1 µM,"C[C@H](c1ccccn1)c1c(CCN2CCC2)sc2ccccc12 [Compound 20-9, 2-{(S)-1-[2-(2-Azetidin-1-yl-ethyl)-benzo[b]thiophen-3-yl]-ethyl}-pyridine]"
8,≤ 1 µM,"CNCCc1sc2ccccc2c1[C@@H](C)c1ccccn1 [Compound 21-1, Methyl-{2-[3-((R)-1-pyridin-2-yl-ethyl)-benzo[b]thiophen-2-yl]-ethyl}-amine]"
9,≤ 1 µM,"CN(C)CCc1sc2ccccc2c1Cc1cccnc1F [Compound 24-2, {2-[3-(2-Fluoro-pyridin-3-ylmethyl)-benzo[b]thiophen-2-yl]-ethyl}-dimethyl-amine]"
10,≤ 1 µM,"CC(c1cccnc1Cl)c1c(CCN(C)C)sc2ccccc12 (centres unmarked) [Compound 25-4, (2-{3-[1-(2-Chloro-pyridin-3-yl)-ethyl]-benzo[b]thiophen-2-yl}-ethyl)-dimethyl-amine]"

# More lines, now with the values behind:
row,Structure (SMILES),Ki
1,"C[C@H](c1cccnc1F)c1c(CCN(C)C)sc2ccccc12 [Compound 15-8, Dimethyl-(2-{3-[(R)-1-(2-fluoro-pyridin-3-yl)-ethyl]-benzo[b]thiophen-2-yl}-ethyl)-amine]",≤ 1 µM
2,"C[C@@H](c1cccnc1F)c1c(CCN(C)C)sc2ccccc12 [Compound 15-9, Dimethyl-(2-{3-[(S)-1-(2-fluoro-pyridin-3-yl)-ethyl]-benzo[b]thiophen-2-yl}-ethyl)-amine]",≤ 1 µM
3,"CC(c1cscn1)c1c(CCN(C)C)sc2ccccc12 (centres unmarked) [Compound 16-2, Dimethyl-{2-[3-(1-thiazol-4-yl-ethyl)-benzo[b]thiophen-2-yl]-ethyl}-amine]",≤ 1 µM
4,"C[C@@H](c1cscn1)c1c(CCN(C)C)sc2ccccc12 [Compound 16-3, Dimethyl-{2-[3-((R)-1-thiazol-4-yl-ethyl)-benzo[b]thiophen-2-yl]-ethyl}-amine]",≤ 1 µM
5,"CC(c1cncs1)c1c(CCN(C)C)sc2ccccc12 (centres unmarked) [Compound 17-2, Dimethyl-{2-[3-(1-thiazol-5-yl-ethyl)-benzo[b]thiophen-2-yl]-ethyl}-amine]",≤ 1 µM
6,"C[C@@H](c1cncs1)c1c(CCN(C)C)sc2ccccc12 [Compound 17-3, Dimethyl-{2-[3-((R)-1-thiazol-5-yl-ethyl)-benzo[b]thiophen-2-yl]-ethyl}-amine]",≤ 1 µM
7,"C[C@H](c1cncs1)c1c(CCN(C)C)sc2ccccc12 [Compound 17-4, Dimethyl-{2-[3-((S)-1-thiazol-5-yl-ethyl)-benzo[b]thiophen-2-yl]-ethyl}-amine]",≤ 1 µM
8,"CC(c1ncccc1F)c1c(CCN(C)C)sc2ccccc12 (centres unmarked) [Compound 18-3, (2-{3-[1-(3-Fluoro-pyridin-2-yl)-ethyl]-benzo[b]thiophen-2-yl}-ethyl)-dimethyl-amine]",≤ 1 µM
9,"C[C@@H](c1ncccc1F)c1c(CCN(C)C)sc2ccccc12 [Compound 18-4, (2-{3-[(R)-1-(3-Fluoro-pyridin-2-yl)-ethyl]-benzo[b]thiophen-2-yl}-ethyl)-dimethyl-amine]",≤ 1 µM
10,"C[C@H](c1ncccc1F)c1c(CCN(C)C)sc2ccccc12 [Compound 18-5, (2-{3-[(S)-1-(3-Fluoro-pyridin-2-yl)-ethyl]-benzo[b]thiophen-2-yl}-ethyl)-dimethyl-amine]",≤ 1 µM
11,"CC(c1cscn1)c1c(CCN2CCCC2)sc2ccccc12 (centres unmarked) [Compound 19-4, 4-{1-[2-(2-Pyrrolidin-1-yl-ethyl)-benzo[b]thiophen-3-yl]-ethyl}-thiazole]",≤ 1 µM
12,"C[C@@H](c1cscn1)c1c(CCN2CCCC2)sc2ccccc12 [Compound 19-5, 4-{(R)-1-[2-(2-Pyrrolidin-1-yl-ethyl)-benzo[b]thiophen-3-yl]-ethyl}-thiazole]",≤ 1 µM
13,"C[C@H](c1cscn1)c1c(CCN2CCCC2)sc2ccccc12 [Compound 19-6, 4-{(S)-1-[2-(2-Pyrrolidin-1-yl-ethyl)-benzo[b]thiophen-3-yl]-ethyl}-thiazole]",≤ 1 µM
